Results published in US7276480B1, “Prevention and reduction of blood loss” (Dyax Corp., priority 2005, dated 2007).
No end group written: not given here.

Molecular target: human plasma kallikrein (Homo sapiens, UniProt P03952)
Test: Affinity (Ki,app) for plasma proteases, Table 1
Format: biochemical

Sequence of human plasma kallikrein (P03952 391-638 limits assumed): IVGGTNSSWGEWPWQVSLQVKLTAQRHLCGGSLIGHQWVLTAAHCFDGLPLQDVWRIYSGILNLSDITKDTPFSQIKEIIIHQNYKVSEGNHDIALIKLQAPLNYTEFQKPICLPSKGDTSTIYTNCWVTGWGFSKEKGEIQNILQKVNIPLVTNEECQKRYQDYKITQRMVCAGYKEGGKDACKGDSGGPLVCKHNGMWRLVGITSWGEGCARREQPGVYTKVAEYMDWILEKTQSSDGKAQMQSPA
Sequence of human plasma kallikrein (P03952 20-390 limits assumed): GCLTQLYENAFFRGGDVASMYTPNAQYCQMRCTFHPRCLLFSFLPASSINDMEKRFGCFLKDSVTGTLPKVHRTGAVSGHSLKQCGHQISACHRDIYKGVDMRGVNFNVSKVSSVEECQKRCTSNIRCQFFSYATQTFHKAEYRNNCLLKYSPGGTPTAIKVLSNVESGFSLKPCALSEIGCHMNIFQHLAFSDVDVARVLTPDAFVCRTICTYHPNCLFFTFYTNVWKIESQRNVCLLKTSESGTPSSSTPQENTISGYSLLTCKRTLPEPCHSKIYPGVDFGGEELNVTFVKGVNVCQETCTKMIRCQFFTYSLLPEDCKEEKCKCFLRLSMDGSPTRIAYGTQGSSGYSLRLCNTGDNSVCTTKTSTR

concentration in the plasma required to inhibit 99% of the kallikrein at 1 nM (kallikrein 1 nM, 99% inhibition) | Ki (read-out: Ki,app, human plasma kallikrein) [nM] | Substance | specificity among kallikrein and eleven other plasma proteases (from Table 1) | affinity (Ki,app) for kallikrein relative to the affinity of aprotinin (ratio versus aprotinin) [times higher]
at least 3 mu.M | 30 | aprotinin |  | 
 |  | PEP-1: non-naturally occurring KI polypeptide, 60-amino acid sequence of SEQ ID NO:2, recombinant from Pichia pastoris (EAMHSFCAFKADDGPCRAAHPRWFFNIFTRQCEEFIYGGCEGNQNRFESLEECKKMCTRD; ends and bridges not checked; cysteine pairing not given here) | highly specific for human plasma kallikrein | 1000
